Experiments:
[1] = system: PC3 cells; test: NAMPT Cell Proliferation Assay (Cell Titer Glo; also performed in the presence of 0.3 mM nicotinamide mononucleotide); format: cell-based; conditions: Homo sapiens, PC-3, 120 h, 5 days incubation, cell viability by Cell Titer Glo
Summary of the method: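 Viability read by Cell Titer Glo after 5-day compound treatment of PC3 cells, dose range 10 μM down to 1×10^−5 μM in 10-fold steps; a second run adds 0.3 mM nicotinamide mononucleotide. Sigmoidal dose-response fitting of percent inhibition gives IC50.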

[2] = system: collagen-induced arthritis; conditions: Busso, N. et al. Plos One 3, e2267, 2008; cited from earlier work
[3] = system: experimental autoimmune encephalomyelitis (EAE); conditions: model of T-cell mediated autoimmune disorders; Bruzzone, S et al. Plos One 4, e7897, 2009; cited from earlier work
[4] = system: activated T cells; conditions: Busso, N. et al. Plos One 3, e2267, 2008; cited from earlier work

SMILES	IC50 [1] [nM]	also measured
O=C(N[C@H]1CCN(c2cccnn2)C1)c1ccc(C2CCN(C(=O)CC(F)(F)F)CC2)s1 [Example 1017, N-[(3S)-1-(pyridazin-3-yl)pyrrolidin-3-yl]-5-[1-(3,3,3-trifluoropropanoyl)piperidin-4-yl]thiophene-2-carboxamide]	752	–
O=C(N[C@H]1CCN(c2cccnn2)C1)c1ccc(C2CCN(C(=O)CC3CC4CCC3C4)CC2)s1 (stereo partly drawn) [Example 1019, 5-[1-(bicyclo[2.2.1]hept-2-ylacetyl)piperidin-4-yl]-N-[(3S)-1-(pyridazin-3-yl)pyrrolidin-3-yl]thiophene-2-carboxamide]	2460	–
O=C(N[C@H]1CCOC1)c1ccc(NC(=O)C2CN(c3cccnn3)C2)cc1 [Example 1020, 1-(pyridazin-3-yl)-N-{4-[(3S)-tetrahydrofuran-3-ylcarbamoyl]phenyl}azetidine-3-carboxamide]	7270	–
O=C(N[C@@H]1CCOC1)c1ccc(NC(=O)C2CN(c3cccnn3)C2)cc1 [Example 1022, 1-(pyridazin-3-yl)-N-{4-[(3R)-tetrahydrofuran-3-ylcarbamoyl]phenyl}azetidine-3-carboxamide]	8160	–
O=C(/C=C/c1cccnc1)NCCCCC1CCN(C(=O)c2ccccc2)CC1 [FK866]	–	efficacy in animal models of arthritis (collagen-induced arthritis) [2]: efficacious; manifestations of experimental autoimmune encephalomyelitis (EAE) [3]: ameliorated the manifestations; apoptosis of activated T cells [4]: induce apoptosis; proliferation of activated T cells [4]: selectively block proliferation

The next lines start with results.

IC50 [1] [nM]	SMILES	also measured
90.1	CCC(C)(C)C(=O)N1CCC(c2ccc(C(=O)N[C@H]3CCN(c4cccnn4)C3)s2)CC1 [Example 1015, 5-[1-(2,2-dimethylbutanoyl)piperidin-4-yl]-N-[(3S)-1-(pyridazin-3-yl)pyrrolidin-3-yl]thiophene-2-carboxamide]	–
212	CC1(C(=O)N2CCC(c3ccc(C(=O)N[C@H]4CCN(c5cccnn5)C4)s3)CC2)CC1 [Example 1016, 5-{1-[(1-methylcyclopropyl)carbonyl]piperidin-4-yl}-N-[(3S)-1-(pyridazin-3-yl)pyrrolidin-3-yl]thiophene-2-carboxamide]	–
716	O=C(N[C@H]1CCN(c2cccnn2)C1)c1ccc(C2CCN(C(=O)CC3CC3)CC2)s1 [Example 1018, 5-[1-(cyclopropylacetyl)piperidin-4-yl]-N-[(3S)-1-(pyridazin-3-yl)pyrrolidin-3-yl]thiophene-2-carboxamide]	–
47.7	CN(C)CCc1ccc(NC(=O)c2ccc(NC(=O)C3CN(c4cccnn4)C3)cc2)cc1 [Example 1021, N-[4-({4-[2-(dimethylamino)ethyl]phenyl}carbamoyl)phenyl]-1-(pyridazin-3-yl)azetidine-3-carboxamide]	–
508	COCCNC(=O)c1ccc(NC(=O)C2CN(c3cccnn3)C2)cc1 [Example 1023, N-{4-[(2-methoxyethyl)carbamoyl]phenyl}-1-(pyridazin-3-yl)azetidine-3-carboxamide]	–
